Source: paper PMC6669961, “Design and Optimization of Thioglycosyl–naphthalimides as Efficient Inhibitors Against Human O-GlcNAcase” (Frontiers in Chemistry, 2019)
Where two headings read alike, the source gives them in different places.

Legend:
hOGA = settings: read-out: Ki against hOGA, cited from earlier work
HsHexB = settings: read-out: Ki against HsHexB, cited from earlier work
[1] = target: T1, human β-N-acetylhexosaminidase B (HsHexB) (Homo sapiens, UniProt P07686); test: Enzyme inhibitory activity test against HsHexB (4-MU-GlcNAc substrate, end-point fluorescence; Dixon plots for Ki); assay type: biochemical; settings: pH 4.5; for inhibition at 100 µM: 100 μM inhibitor, 40 μM 4-MU-GlcNAc, 30°C, 30 min, read-out: Inhibition rate at 100 μM (%) HsHexB; for Ki: Dixon plots, 4-MU-GlcNAc 40, 20, 10 μM
T1 construct: made in house; host or cells: Pichia pastoris
T1 sequence (P07686 122-556): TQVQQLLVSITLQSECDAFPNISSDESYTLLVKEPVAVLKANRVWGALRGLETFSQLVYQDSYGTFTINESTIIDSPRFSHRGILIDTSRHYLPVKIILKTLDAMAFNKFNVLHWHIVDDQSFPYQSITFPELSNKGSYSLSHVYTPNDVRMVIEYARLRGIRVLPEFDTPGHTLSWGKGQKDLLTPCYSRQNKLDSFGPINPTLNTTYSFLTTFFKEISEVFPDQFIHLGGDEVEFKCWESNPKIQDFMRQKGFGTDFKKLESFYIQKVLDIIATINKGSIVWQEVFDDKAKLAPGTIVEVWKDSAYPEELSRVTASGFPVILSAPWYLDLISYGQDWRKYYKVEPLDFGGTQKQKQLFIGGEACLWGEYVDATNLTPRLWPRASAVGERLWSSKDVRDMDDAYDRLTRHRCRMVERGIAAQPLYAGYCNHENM
Description: (§1) Human O-GlcNAcase (hOGA) was expressed in Escherichia coli BL21(DE3) and purified according to previous methods (Kong et al., [2016]). Human β-N-acetylhexosaminidase B (HsHexB) was overexpressed in Pichia pastoris and then purified as described previously (Shen et al., [2018a]).
(§2) All target compounds were evaluated for their inhibitory activities against hOGA and HsHexB in end-point experiments. 4-Methylumbelliferyl N-acetyl-β-D-glucosaminide (4-MU-GlcNAc) was used as substrate. In a final assay volume of 100 μL, inhibitor and substrate (40 μM) were mixed with Britton-Robinson buffer (hOGA, pH 6.5; HsHexB, pH 4.5) and enzyme; then, the assay components were incubated at 30°C for 30 min. Subsequently, the enzymatic reaction was terminated by the addition of 100 μL 0.5 M Na2CO3 solution. The fluorescence of the liberated 4-methylumbelliferone (Mu) was quantified at an excitation of 366 nm and emission of 445 nm on a Varioskan Flash microplate reader (Thermo Fisher Scientific, USA). To determine the inhibition constant (Ki), Dixon plots were performed by changing the concentration of the 4-MU-GlcNAc (40, 20, and 10 μM).

human O-GlcNAcase (hOGA) = target: T2, human O-GlcNAcase (hOGA) (Homo sapiens, UniProt O60502); test: Enzyme inhibitory activity test against hOGA (4-MU-GlcNAc substrate, end-point fluorescence; Dixon plots for Ki); assay type: biochemical; settings: for inhibition at 100 µM: 100 μM inhibitor, 40 μM 4-MU-GlcNAc, 30°C, 30 min, read-out: Inhibition rate at 100 μM (%) hOGA; for inhibition at 100 µM / Ki: pH 6.5; for Ki: Dixon plots, 4-MU-GlcNAc 40, 20, 10 μM; for decrease in inhibitory activity against hOGA: NHC2H5 (17a or 17d) compared to NHCH3 (16h or 17c)
T2 construct: made in house; host or cells: Escherichia coli BL21(DE3)
T2 sequence (O60502 1-916): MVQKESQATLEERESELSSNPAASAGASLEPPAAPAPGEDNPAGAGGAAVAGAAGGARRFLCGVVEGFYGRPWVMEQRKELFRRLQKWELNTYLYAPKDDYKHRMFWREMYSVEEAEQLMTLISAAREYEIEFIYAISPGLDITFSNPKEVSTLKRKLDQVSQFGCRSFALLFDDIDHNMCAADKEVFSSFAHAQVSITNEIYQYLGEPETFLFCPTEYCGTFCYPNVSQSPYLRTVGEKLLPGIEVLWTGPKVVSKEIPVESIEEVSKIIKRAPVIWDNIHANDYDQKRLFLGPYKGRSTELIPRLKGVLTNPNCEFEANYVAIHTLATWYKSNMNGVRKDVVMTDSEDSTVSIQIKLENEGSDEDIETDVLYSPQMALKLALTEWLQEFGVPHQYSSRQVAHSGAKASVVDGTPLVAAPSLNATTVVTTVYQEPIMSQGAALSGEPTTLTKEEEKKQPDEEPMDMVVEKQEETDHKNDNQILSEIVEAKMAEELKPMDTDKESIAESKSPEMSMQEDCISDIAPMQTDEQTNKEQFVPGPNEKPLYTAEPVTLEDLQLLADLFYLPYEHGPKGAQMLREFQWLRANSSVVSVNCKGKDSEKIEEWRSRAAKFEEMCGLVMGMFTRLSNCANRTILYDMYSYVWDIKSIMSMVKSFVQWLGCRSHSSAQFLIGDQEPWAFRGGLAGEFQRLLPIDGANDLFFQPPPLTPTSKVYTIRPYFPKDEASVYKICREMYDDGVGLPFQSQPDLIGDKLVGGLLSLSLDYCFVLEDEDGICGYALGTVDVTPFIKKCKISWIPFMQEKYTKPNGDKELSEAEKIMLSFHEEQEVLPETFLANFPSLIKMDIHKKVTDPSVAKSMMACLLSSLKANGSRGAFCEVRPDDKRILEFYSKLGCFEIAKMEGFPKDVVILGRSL
Description: as §1, §2

HsHex = settings: read-out: Ki against HsHex, cited from earlier work
[2] = lead compounds 15b (1) and 5c (2) of previous research, ref Chen et al., 2018, Shen et al., 2018a
[3] = 13r (3) of previous research, ref Shen et al., 2018b
[4] = GlcNAcstatin C, ref Dorfmueller et al., 2009
[5] = Gluco-nagstatin, ref Terinek and Vasella, 2005

Structure (SMILES)	inhibition at 100 µM [1] [%]	Ki [1] [µM]	inhibition at 100 µM (human O-GlcNAcase (hOGA)) [%]	Ki (human O-GlcNAcase (hOGA)) [µM]	further results
CC(=O)OC[C@H]1O[C@@H](SCC(=O)NCCCN2C(=O)c3cccc4c(N5CCCCC5)ccc(c34)C2=O)[C@@](O)(NC(=O)c2ccc(F)cc2)[C@@H](OC(C)=O)[C@@H]1OC(C)=O [Compound 1]					Ki (hOGA; [2]): 3.8 µM; Ki (HsHexB; [2]): 30.4 µM
CC(=O)N[C@@H]1[C@@H](O)[C@H](O)[C@@H](CO)O[C@H]1SCC(=O)NCCCN1C(=O)c2cccc3cccc(c23)C1=O [Compound 2, reference compound]	45.5 ± 0.5	> 100	97.6 ± 0.9	3.46 ± 0.11	Ki (hOGA; [2]): 3.46 µM; Ki (HsHexB; [2]): > 100 µM
CC(=O)N[C@@H]1[C@@H](O)[C@H](O)[C@@H](CO)O[C@H]1SCCNCCCN1C(=O)c2cccc3c(N4CCCCC4)ccc(c23)C1=O [Compound 3]					Ki (hOGA; [3]): 0.6 µM; Ki (HsHexB; [3]): > 100 µM
CC(C)C(=O)N[C@H]1c2nc(CCc3ccccc3)cn2[C@H](CO)[C@@H](O)[C@@H]1O [GlcNAcstatin C]					Ki (hOGA; [4]): 0.0044 µM; Ki (HsHex; [4]): 0.55 µM
CC(=O)N[C@H]1c2nc(CC(=O)O)cn2[C@H](CO)[C@@H](O)[C@@H]1O [Gluco-nagstatin]					Ki (hOGA; [5]): 0.42 µM; Ki (HsHex; [5]): 0.01 µM
CC1=N[C@@H]2[C@@H](O)[C@H](O)[C@@H](CO)O[C@@H]2S1 [NGT, NAG-thiazoline]					Ki (HsHex; NGT, ref Knapp et al., 1996): 0.07 µM
CCNC1=N[C@@H]2[C@@H](O)[C@H](O)[C@@H](CO)O[C@@H]2S1 [Thiamet-G]					Ki (HsHex; Thiamet-G, ref Yuzwa et al., 2008): 750 µM

Second part, led by results:

inhibition at 100 µM [1] [%]	Ki [1] [µM]	inhibition at 100 µM (human O-GlcNAcase (hOGA)) [%]	Ki (human O-GlcNAcase (hOGA)) [µM]	Structure (SMILES)	further results
48.5 ± 1.7	> 100	48 ± 0.9	> 100	O=C(CS[C@@H]1O[C@H](CO)[C@@H](O)[C@H](O)[C@H]1NC(=O)c1ccc(F)cc1)NCCCN1C(=O)c2cccc3c(Br)ccc(c23)C1=O [Compound 16k]	
41.8 ± 1	> 100	97.7 ± 2.2	0.72 ± 0.01	CCC(=O)N[C@@H]1[C@@H](O)[C@H](O)[C@@H](CO)O[C@H]1SCC(=O)NCCCN1C(=O)c2cccc3c(Br)ccc(c23)C1=O [Compound 16l]	
39.8 ± 2.3	> 100	97.1 ± 1.3	4.36 ± 0.21	CCCC(=O)N[C@@H]1[C@@H](O)[C@H](O)[C@@H](CO)O[C@H]1SCC(=O)NCCCN1C(=O)c2cccc3c(Br)ccc(c23)C1=O [Compound 16m]	
37 ± 0.4	> 100	87.8 ± 0.4	6.92 ± 0.1	CC(C)C(=O)N[C@@H]1[C@@H](O)[C@H](O)[C@@H](CO)O[C@H]1SCC(=O)NCCCN1C(=O)c2cccc3c(Br)ccc(c23)C1=O [Compound 16n]	
37.7 ± 0.9	> 100	90.9 ± 0.2	4.62 ± 0.18	O=C(CS[C@@H]1O[C@H](CO)[C@@H](O)[C@H](O)[C@H]1NC(=O)C(F)(F)F)NCCCN1C(=O)c2cccc3c(Br)ccc(c23)C1=O [Compound 16o]	
25.9 ± 0.3	> 100	68.6 ± 0.8	12 ± 0.3	CCNC(=O)N[C@@H]1[C@@H](O)[C@H](O)[C@@H](CO)O[C@H]1SCC(=O)NCCCN1C(=O)c2cccc3c(N4CCCCC4)ccc(c23)C1=O [Compound 17a]	decrease in inhibitory activity against hOGA (human O-GlcNAcase (hOGA)): 2 to 3 fold
22.7 ± 0.2	> 100	66.3 ± 0.6	13.83 ± 0.02	CCCNC(=O)N[C@@H]1[C@@H](O)[C@H](O)[C@@H](CO)O[C@H]1SCC(=O)NCCCN1C(=O)c2cccc3c(N4CCCCC4)ccc(c23)C1=O [Compound 17b]	
40.7 ± 0.7	> 100	96.7 ± 1.6	2.17 ± 0.13	CNC(=O)N[C@@H]1[C@@H](O)[C@H](O)[C@@H](CO)O[C@H]1SCC(=O)NCCCN1C(=O)c2cccc3c(Br)ccc(c23)C1=O [Compound 17c]	
26.3 ± 1.1	> 100	83.5 ± 0.9	7.11 ± 0.01	CCNC(=O)N[C@@H]1[C@@H](O)[C@H](O)[C@@H](CO)O[C@H]1SCC(=O)NCCCN1C(=O)c2cccc3c(Br)ccc(c23)C1=O [Compound 17d]	decrease in inhibitory activity against hOGA (human O-GlcNAcase (hOGA)): 2 to 3 fold
